Experimental findings from US10131652B2, “Pyrimidinyloxy benzene derivatives as herbicides” (E. I. DU PONT DE NEMOURS AND COMPANY, priority 2014, dated 2018) are described below.

Like-named read-outs stand apart in the source and are kept apart here.

Holding throughout (format): in vivo
For one experiment, the system named is corn (Zea mays). Kind of experiment: Test B pre-/postemergence plant response. The settings on record: Zea mays, 240 h; for Corn plant response rating (crop injury, 0 = no effect, 100 = complete kill) at 125 g/ha: 125 g ai/ha; for Corn plant response rating (crop injury, 0 = no effect, 100 = complete kill) at 500 g/ha: 500 g ai/ha. In short, it runs like this: (§1)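 Seeds in loam–sand blend given preemergence soil spray; separately, plants at one- to two-leaf stage (2–10 cm) sprayed postemergence, compounds in non-phytotoxic solvent with surfactant. Injury rated visually versus untreated controls after ~10 days in greenhouse, 0 (no effect) to 100 (complete control).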

Experiment [1] relates to pigweed (Amaranthus retroflexus). The experiment in a line: Test B pre-/postemergence plant response. The note with it: Amaranthus retroflexus, 240 h, read-out: Plant response rating, Pigweed; for pest or weed control at 125 g/ha: 125 g ai/ha; for pest or weed control at 500 g/ha: 500 g ai/ha. In short, it runs like this:
as §1

Experiment [2] relates to wheat (Triticum aestivum). Kind of experiment: Test B pre-/postemergence plant response. The settings on record: Triticum aestivum, 240 h, read-out: Plant response rating, Wheat; for plant injury at 125 g/ha: 125 g ai/ha; for plant injury at 500 g/ha: 500 g ai/ha. An outline of the steps: as §1
In experiment [3] the test system is barnyardgrass (Echinochloa crus-galli). Kind of experiment: Test B pre-/postemergence plant response. The settings on record: Echinochloa crus-galli, 240 h, read-out: Plant response rating, Barnyardgrass; for pest or weed control at 125 g/ha: 125 g ai/ha; for pest or weed control at 500 g/ha: 500 g ai/ha. In short, it runs like this: as §1
The test system of experiment [4] is giant foxtail (Setaria faberii). Kind of experiment: Test B pre-/postemergence plant response. The note with it: Setaria faberi, 240 h, read-out: Plant response rating, Foxtail, Giant; for pest or weed control at 125 g/ha: 125 g ai/ha; for pest or weed control at 500 g/ha: 500 g ai/ha. In short, it runs like this: as §1
For another experiment, the system named is rice (Oryza sativa). Kind of experiment: Test C flooded paddy test plant response. The settings on record: Oryza sativa; Flood, 250 g ai/ha; scale of 0 to 100 where 0 is no effect and 100 is complete control; 13 to 15 days; read-out: Rice plant response rating. In short, it runs like this: (§2)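 2-leaf plants; flood 3 cm, cpd into paddy water; greenhouse 13–15 d; visual score vs untreated, 0 = no effect, 100 = complete control; dash = no result.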

In experiment [5] the test system is small-flower umbrella sedge (Cyperus difformis). Kind of experiment: Test C flooded paddy test plant response. The note with it: Cyperus difformis; Flood, 250 g ai/ha; scale of 0 to 100 where 0 is no effect and 100 is complete control; 13 to 15 days; read-out: Sedge, Umbrella plant response rating. In short, it runs like this:
as §2

Experiment [6] concerns ducksalad (Heteranthera limosa). The experiment in a line: Test C flooded paddy test plant response. The settings on record: Heteranthera limosa; Flood, 250 g ai/ha; scale of 0 to 100 where 0 is no effect and 100 is complete control; 13 to 15 days; read-out: Ducksalad plant response rating. In short, it runs like this:
as §2

The test system of experiment [7] is barnyardgrass (Echinochloa crus-galli). Kind of experiment: Test C flooded paddy test plant response. The settings on record: Echinochloa crus-galli; Flood, 250 g ai/ha; scale of 0 to 100 where 0 is no effect and 100 is complete control; 13 to 15 days; read-out: Barnyardgrass plant response rating. An outline of the steps:
as §2

Setting [8] is: post-emergence, postemergence, 0 to 100 scale, 0 no effect, 100 complete control.
Where [9] appears, read: post-emergence, Postemergence, 0 to 100 scale (0 no effect, 100 complete control).
Setting [10] is: pre-emergence, Preemergence, 0 to 100 scale where 0 is no effect and 100 is complete control.
Setting [11] is: pre-emergence, Preemergence, 0 to 100 scale (0 no effect, 100 complete control).

As for `Cc1ccc(Oc2ncc(Cl)cn2)c(-c2ccnc(C(F)(F)F)c2)c1` [Compound 24, 5-chloro-2-[4-methyl-2-[2-(trifluoromethyl)-4-pyridinyl]phenoxy]pyrimidine], the Corn plant response rating (crop injury, 0 = no effect, 100 = complete kill) at 125 g/ha with corn (Zea mays) (setting [8]) and in the experiment on corn (Zea mays) (setting [10]) was 0% in each case. Further, the Corn plant response rating (crop injury, 0 = no effect, 100 = complete kill) at 500 g/ha with corn (Zea mays) (setting [9]) and in the experiment with corn (Zea mays) (setting [11]) was 40% each time. Also, the pest or weed control at 125 g/ha in experiment [1] (setting [8]) is 20%; in [1] (setting [10]) it was 0%; in experiment [3] (setting [8]), 0%; in [3] (setting [10]), 10%; in experiment [4] (setting [8]) it was 30%; in experiment [4] (setting [10]), 20%. The pest or weed control at 500 g/ha in [1] (setting [9]) came out at 40%; in experiment [1] (setting [11]), 40%; in experiment [3] (setting [9]), 60%; in experiment [3] (setting [11]), 80%; in experiment [4] (setting [9]), 90%; in [4] (setting [11]), 90%. Also, the plant injury at 125 g/ha in experiment [2] (setting [8]) and in [2] (setting [10]) was 0% each time. Besides, the plant injury at 500 g/ha in [2] (setting [9]) and in [2] (setting [11]) was 0% throughout. Also, the plant injury at 250 g/ha in the experiment with rice (Oryza sativa) worked out at 0%. Moreover, the pest or weed control at 250 g/ha in experiment [5] was found to be 40%; in experiment [6], 0%; in [7] it was 0%.
On to `FC(F)(F)c1ccnc(-c2ccccc2Oc2ncc(Cl)cn2)c1` [Compound 25, 5-chloro-2-[2-[4-(trifluoromethyl)-2-pyridinyl]phenoxy]pyrimidine], for which the Corn plant response rating (crop injury, 0 = no effect, 100 = complete kill) at 125 g/ha in the experiment with corn (Zea mays) (setting [8]) was 10%; with corn (Zea mays) (setting [10]), 0%. The Corn plant response rating (crop injury, 0 = no effect, 100 = complete kill) at 500 g/ha amounted to 30% in the experiment on corn (Zea mays) (setting [9]) and 0% with corn (Zea mays) (setting [10]). In addition, the pest or weed control at 125 g/ha was determined as 30% in [1] (setting [8]); 60% in [1] (setting [10]); 0% in [3] (setting [8]); 10% in experiment [3] (setting [10]); 0% in [4] (setting [8]); 40% in experiment [4] (setting [10]). Besides, the pest or weed control at 500 g/ha in experiment [1] (setting [9]) came to 90%; in experiment [1] (setting [10]), 100%; in experiment [3] (setting [9]), 30%; in experiment [3] (setting [10]), 70%; in [4] (setting [9]), 60%; in experiment [4] (setting [10]), 90%. In addition, the plant injury at 125 g/ha in experiment [2] (setting [8]) and in experiment [2] (setting [10]) was 0% in each case. The figures for the plant injury at 500 g/ha in experiment [2] (setting [9]) and in experiment [2] (setting [10]) were 10% and 0%, respectively. The plant injury at 250 g/ha in the experiment on rice (Oryza sativa) amounted to 0%. The pest or weed control at 250 g/ha came out at 20% in [5], 30% in experiment [6] and 0% in [7].
